Measurements from patent US10590115B2, “Tetrahydroquinazoline derivatives useful as anticancer agents” (PFIZER INC., priority 2018, dated 2020).

Legend:
[1] = biological target: T1, GDP-loaded kRas (1-169) G12C, C51S, C80L, C118S (Homo sapiens, UniProt P01116, C118S/C51S/C80L/G12C); assay: Mass Spectrometry Reactivity Assay (MSRA), covalent adduct with kRas G12C; assay type: binding; conditions: 0.5 h at room temperature; 5 μM KRas protein; typical final concentration of the compounds 10 μM
T1 construct: GDP-loaded kRas (1-169) G12C, C51S, C80L, C118S
Description: Mass Spectrometry Reactivity Assay (MSRA)
Compounds presented in the present invention covalently bind to kRas G12C using MSRA to detect a covalent adduct of the exemplary compound and kRas G12C. GDP-loaded kRas (1-169) G12C, C51S, C80L, C118S were diluted in the protein assay buffer 25 mM Hepes pH7.5, 200 mM NaCl, 5% glycerol to concentration of 5 μM and 20 μl of protein was transferred into 96-well plate. […] See K-Ras(G12C) inhibitors allosterically control GTP affinity and effector interactions; Ostrem J M, Peters U, Sos M L, Wells J A, Shokat K M; Nature. 2013, Nov. 28; 503(7477):548-51.
Exemplary compounds dissolved in DMSO were diluted 100-fold into solution containing 20 μl of 5 μM KRas protein in the 96-well plate to initiate the reaction. Mosquito (TPP Lab tech) liquid handling robot was used to add compounds to protein solution. Typical final concentration of the compounds was 10 μM. The plates were placed on a shaker for 1 min at RT, sealed and incubated at room temperature for specified time period. 5 μl of reaction mix was added to 10 μl of 0.2% formic acid stop solution and mixed well. Typical end points were 30, 120, 600 and 1440 min.
Data were collected using Waters Acquity H-class UPLC system/Xevo G2-XS TOF mass spectrometer. The protein was injected in their liquid phase onto a Bruker Microtrap protein column TR1/15109/03. The following buffers were used to set LC gradient: Buffer A: 0.2% formic acid H20; B: 0.2% formic acid CAN. The protein was eluted from the column using the following LC Gradient: 0-0.4 min, 10% B to 30% B; 0.4 min-2.4 min, to 90% B, 2.5 min, 10% B, 3 min, 10% B. Initial data analysis was performed using MaxEnt software right after data acquisition.
The standard auto processing function was used to define percentage of unmodified and modified kRas protein using MexEnt software right after data acquisition. The highest peak was defined as 100% while smaller peak as assigned the number defined by autoprocessing function. The percent of modification corresponding to modified with exemplary compound and unmodified KRas GDP-loaded kRas (1-169) G12C, C51S, C80L, C118S were exported to Xcel data analysis software.
The percent of modified protein at the defined concentration of exemplary compound was calculated using the following formula: % mod=Num of modified peak/Sum of modified+unmodified.

KRAS G12C in H358 cells = biological target: T2, KRAS G12C in H358 cells (Homo sapiens, UniProt P01116, G12C); assay: H358 Cell Activity Assay (Raf-1 RBD capture of active Ras, MSD); assay type: cell-based; conditions: 6 hours treatment
T2 construct: endogenous in cells; host or cells: H358
Description: (§1) Compounds presented in the present invention lead to the accumulation of the GDP bound Ras upon treatment of human cancer cell line.
(§2) The accumulation of the GDP-bound KRAS G12C in cellular environment was measured based on the principle that KRAS G12C only binds to its downstream kinase; Raf-1 (MAP Kinase Kinase Kinase), when in its active-GTP bound state. In this state, Ras binded to a domain of Raf-1 kinase referred to as the Ras Binding Domain (RBD).
(§3) H358 cells were grown in RPMI 1640 medium (Gibco 11875) supplemented with 10% fetal bovine serum and 1% penicillin/streptomycin. Cells were seeded in 96-well tissue culture plates at a density of 40,000 cells/well and allowed to attach for 16-24 hours. Test compounds were prepared as a 10 mM stock in DMSO and serially diluted in 100% DMSO using a 3-fold dilution scheme. An intermediate 5× concentrated plate in complete growth medium was made and 25 μl/well was added to the 100 μl of cells for a final concentration of 0.1% DMSO. Each concentration of exemplary compound was tested in duplicate. The negative control wells were cells with control inhibitor at 10 μM, and the positive control wells were cells without drugs, DMSO only. Plates were incubated for 6 hours at 37° C., 5% CO2. Following treatment, cells were washed 3× with ice-cold PBS and 100 μl/well ice-cold 1× Assay/Lysis. Buffer with protease inhibitors was added (25 mM HEPES, pH 7.5, 150 mM NaCl, 1% NP-40, 10 mM MgCl2, 1 mM EDTA, 2% Glycerol). Following lysis samples were frozen at −80° C.
(§4) Raf-1 RBD (LJIC-1988A1) was diluted to 100 ng/well in PBS and 5 μl/well was spot coated onto MSD high bind SECTOR plates (L15XB). Plates were incubated at room temperature for 1 hour on an orbital shaker. Plates were washed with PBS/0.05% Tween-20 and 50 μl/well of thawed lysate samples were added, followed by 50 μl of 1% MSD Blocker A in PBS/0.05% Tween-20 (R93BA). Plates were incubated for 1 hour on an orbital shaker and washed with PBS/0.05% Tween-20. 25 μl/well of Anti-pan-Ras Antibody (Cell Biolabs 244003) diluted 1:3000 was added in 1% MSD Blocker A solution and plates were incubated for 1 hour on an orbital shaker and washed with PBS/0.05% Tween-20. SULFO-TAG goat anti-mouse secondary antibody (MSD R32AC) was diluted 1:500 in MSD Blocker A solution and added at 25 μL/well. Plates were incubated for 1 hour on an orbital shaker and washed with PBS/0.05% Tween-20. 150 μl/well of Read Buffer T (MSD R92TC) diluted 1:3 in H2O was added and plates were read on a Meso Scale Discovery Sector Imager S600.
(§5) KRAS signal was normalized to maximum inhibition and DMSO control values, and IC50 values were generated using a 4 parameter fit of the dose response curve. The decrease in IC50 reflects that the exemplary compound lead to a higher level of accumulation of GDP-bound KRAS G12C than another exemplary compounds at specific timepoint of treatment of cancer cell line.

[2] = biological target: T3, KRAS G12C in MiaPaCa2 cells (Homo sapiens, UniProt P01116, G12C); assay: MiaPaCa2 Cell Activity Assay (Raf-1 RBD capture of active Ras, MSD); assay type: cell-based; conditions: MIAPaCa-2 cells, 6 hours treatment; assay limit is 30.0 μM
T3 construct: endogenous in cells; host or cells: MiaPaCa2
Description: MiaPaCa2 Cell Activity Assay
as §1, §2
as §3, with “MiaPaCa2” for “H358”, “DMEM” for “RPMI 1640”, “11995)” for “11875)”
as §4, §5

Structure (SMILES)	% Modification (0.5 h) [1]	IC50 (KRAS G12C in H358 cells)	IC50 [2]
C=CC(=O)N1CCN(c2nc(N3CC(N(C)C)C3)nc3c2C[C@@H](C)[C@H](c2c(Cl)ccc4[nH]ncc24)C3)CC1 (relative stereo) [Example F5, 1-(4-{(6R,7R)-rel-7-(5-chloro-1H-indazol-4-yl)-2-[3-(dimethylamino)azetidin-1-yl]-6-methyl-5,6,7,8-tetrahydroquinazolin-4-yl}piperazin-1-yl)prop-2-en-1-one]	72%	0.145 µM	0.154 µM
C=CC(=O)N1CCN(c2ncnc3c2C[C@@H](C)[C@H](c2c(C)ccc4[nH]ncc24)C3)CC1 [Example A5, 1-{4-[(6R,7R)-6-methyl-7-(5-methyl-1H-indazol-4-yl)-5,6,7,8-tetrahydroquinazolin-4-yl]piperazin-1-yl}prop-2-en-1-one]	77%	0.78 µM	0.64 µM
C=CC(=O)N1CCN(c2nc(OCCCN(C)C)nc3c2C[C@@H](C)[C@H](c2c(C)ccc4[nH]ncc24)C3)CC1 [Example C5, 1-{4-[(6R,7R)-2-[3-(dimethylamino)propoxy]-6-methyl-7-(5-methyl-1H-indazol-4-yl)-5,6,7,8-tetrahydroquinazolin-4-yl]piperazin-1-yl}prop-2-en-1-one]	74%	0.468 µM	0.214 µM
C=CC(=O)N1CCN(c2nc(OCCN(C)C)nc3c2C[C@@H](C)[C@H](c2c(C)ccc4[nH]ncc24)C3)CC1 [Example C6, 1-{4-[(6R,7R)-2-[2-(dimethylamino)ethoxy]-6-methyl-7-(5-methyl-1H-indazol-4-yl)-5,6,7,8-tetrahydroquinazolin-4-yl]piperazin-1-yl}prop-2-en-1-one]	66%	0.521 µM	0.26 µM
C=CC(=O)N1CCN(c2nc(OC[C@@H]3CCCN3C)nc3c2C[C@@H](C)[C@H](c2c(C)ccc4[nH]ncc24)C3)CC1 [Example C9, 1-{4-[(6R,7R)-6-methyl-7-(5-methyl-1H-indazol-4-yl)-2-{[(2S)-1-methylpyrrolidin-2-yl]methoxy}-5,6,7,8-tetrahydroquinazolin-4-yl]piperazin-1-yl}prop-2-en-1-one]	74%	0.27 µM	0.382 µM

The next lines start with the values.

% Modification (0.5 h) [1]	IC50 (KRAS G12C in H358 cells)	IC50 [2]	Structure (SMILES)
83%	0.116 µM	0.126 µM	C=CC(=O)N1CCN(c2nc(N3CC(N(C)C)C3)nc3c2C[C@@H](C)[C@H](c2c(Cl)c(C)cc4[nH]ncc24)C3)CC1 (relative stereo) [Example F6, 1-(4-{(6R,7R)-rel-7-(5-chloro-6-methyl-1H-indazol-4-yl)-2-[3-(dimethylamino)azetidin-1-yl]-6-methyl-5,6,7,8-tetrahydroquinazolin-4-yl}piperazin-1-yl)prop-2-en-1-one]
79%	0.277 µM	0.285 µM	C=CC(=O)N1CCN(c2nc(N3CC(N(C)C)C3)nc3c2C[C@@H](C)[C@H](c2c(C)ccc4[nH]ncc24)C3)CC1 (single isomer, unassigned) [Example F2]
82%	0.062 µM	0.108 µM	C=CC(=O)N1CCN(c2nc(N3CC(N(C)C)C3)nc3c2C[C@@H](C)[C@H](c2c(Cl)c(C)cc4[nH]ncc24)C3)CC1 [Example F7, 1-(4-{(6R,7R)-7-(5-chloro-6-methyl-1H-indazol-4-yl)-2-[3-(dimethylamino)azetidin-1-yl]-6-methyl-5,6,7,8-tetrahydroquinazolin-4-yl}piperazin-1-yl)prop-2-en-1-one]
84%	0.064 µM	0.06 µM	C=CC(=O)N1CCN(c2nc(N3CC(N(C)C)C3)nc3c2C[C@@H](C)[C@H](c2c(Cl)c(C)cc4[nH]ncc24)C3)C[C@H]1C [Example F12, 1-[(2R)-4-{(6R,7R)-7-(5-chloro-6-methyl-1H-indazol-4-yl)-2-[3-(dimethylamino)azetidin-1-yl]-6-methyl-5,6,7,8-tetrahydroquinazolin-4-yl}-2-methylpiperazin-1-yl]prop-2-en-1-one]
72%	0.102 µM	0.068 µM	C=CC(=O)N1CCN(c2nc(N3CC(N(C)C)C3)nc3c2C[C@@H](C)[C@H](c2c(C)c(Cl)cc4[nH]ncc24)C3)CC1 [Example F14, 1-(4-{(6R,7R)-7-(6-chloro-5-methyl-1H-indazol-4-yl)-2-[3-(dimethylamino)azetidin-1-yl]-6-methyl-5,6,7,8-tetrahydroquinazolin-4-yl}piperazin-1-yl)prop-2-en-1-one]
